Data as given in BindingDB's records for patent US11529321 (Wigen Biomedicine Technology (Shanghai), 2022).

Molecular target: Microtubule-associated proteins 1A/1B light chain 3B (Homo sapiens, UniProt Q9GZQ8)
Test: Molecular Level Experiments of Targeting LC3B

IC50 | SMILES
in the range around 9 µM | O=C1CC(c2ccccc2)CC(=O)C1=CNCCN1CCN(C(=S)Nc2cccc(Cl)c2)CC1 (stereo not drawn) [US11529321, Compound 31]
in the range around 9 µM | C=CCNC(=S)N1CCN(CCNC=C2C(=O)CC(c3ccco3)CC2=O)CC1 (stereo not drawn) [US11529321, Compound 39]
in the range around 9 µM | CCCCCC(=O)N1CCN(CCNC=C2C(=O)CC(c3ccco3)CC2=O)CC1 (stereo not drawn) [US11529321, Compound 58]
